Laboratory results as given in patent publication US6506339B1, “Method of sterilization” (Biomedical Design, Inc., priority 1997, dated 2003).
Marks after values point to notes of the source that are not given here.

Legend:
[1] = tested on: Bacillus subtilis (niger) spores; experiment: Sterilization without isopropyl alcohol and sulfo-NHS, cups with or without porcine valve tissue (Example 4B); assay type: cell-based; settings: 40° C., no isopropyl alcohol or sulfo-NHS
Experimental: An experiment similar to that of Example 2 is carried out using EDC as a coupling agent in the absence of isopropyl alcohol and sulfo-NHS. Bacillus subtilis (niger) spores at levels of about 10^6 are inoculated in sterile cups, some of which contain cross-linked porcine aortic valve tissue, for approximately 10 minutes. Solutions (50 ml) of 25, 50 and 70 mM EDC in 10 mM TRIS, 0.85% NaCl, pH 6.5, are prewarmed to 40° C., respectively added to the cups, and incubated at 40° C. for 1 to 3 days. The solutions are then diluted and filtered in order to collect microorganisms. The valve tissue is washed for 20 minutes in a reciprocating shaker in the presence of peptone water containing polyethylenesorbitan monooleate (Tween 80) in order to extract all spores of microorganisms from the tissue; the peptone water solution is added to the corresponding filter. Next, the filters are rinsed with a 0.1% peptone water solution to eliminate any residual EDC and incubated on TSA plates for 14 days. The plates are examined every day for growth, counting the colony forming units (CFUs).

[2] = tested on: Bacillus subtilis (niger) spores; experiment: Sterilization without isopropyl alcohol with porcine aortic root tissue (Example 4C); assay type: cell-based; settings: 40° C., 1.5×10^6 spores with root tissue, no isopropyl alcohol
Experimental: An experiment similar to that of Example 4A is carried out using slightly higher concentrations of EDC and including porcine aortic root tissue. Bacillus subtilis (niger) spores at levels of 1.5×10^6 are inoculated for approximately 10 minutes in sterile cups each containing root tissue. Solutions (50 ml) of 50, 75 and 100 mM EDC in 10 mM TRIS, 0.85% NaCl, pH 6.5 are prewarmed to 40° C. and then rapidly added to the tissues in the cups. The cups containing the tissue are incubated at 40° C. for 6, 9, 12, 24 and 48 hours; then, the solutions are diluted and filtered in order to collect microorganisms. The valve tissue is washed for 20 minutes in a reciprocating shaker in the presence of peptone water containing Tween 80 in order to extract all spores of microorganisms from the tissue. The solutions from the shakers are filtered through the respective filters to which the original solutions were applied. The filters are rinsed with a 0.1% peptone water solution and incubated on TSA plates for up to 14 days. The plates are examined daily for growth.

[3] = tested on: Chaetonium globosom ATCC 6205 spores; experiment: Sterilization in cups at about 38° C. (Example 6); assay type: cell-based, Chaetonium globosum; settings: 25 mM EDC, 20% isopropanol, inoculum Log 10 ˜4.7
Experimental: (§1) In view of the foregoing verification, it was decided to test the effectiveness of the sterilization process against other bacteria using sterile cups. Added to each of the cups is 20 ml of 10 mM HEPES, 0.85%, Nacl, 20% isopropanol, pH 6.5, containing 25 mM EDC without any coupling enhancer, before the cups are placed in a incubator at about 38° C. When the solution temperature reached about 38° C., approximately 10^5-10^6 organisms were inoculated into the solution. The tests were carried out in triplicate. The following four isolated were tested in the form of sporous suspensions: Clostridium sporogenes ATCC 3584, Bacillus pumilus ATCC 27142, Chaetonium globosom ATCC 6205, and Microacus cinereus ATCC 16594. The following three isolates were tested as vegetative cells: Mycobacterium chelonae ATCC 35752, Methylbacterium extorquens ATCC 43645 and Trichosporon aquatile ATCC 22310. The inoculated systems were allowed to incubate for 1 hour, for 5 hours or for 24 hours, and the solutions were then filtered through a 0.45 micron filter. After rinsing, the filter was placed on a TSA plate as described in Example 1. Negative and positive controls indicate that the tests were valid. The results are set forth in Table D which follows wherein the number of CFUs in the inoculum is expressed as its log to the base 10, e.g. 3.4×10^5=5.5: […]

[4] = tested on: Bacillus pumilus ATCC 27142 spores; experiment: Sterilization in cups at about 38° C. (Example 6); assay type: cell-based; settings: 25 mM EDC, 20% isopropanol
Experimental: as §1

[5] = tested on: Clostridium sporogenes ATCC 3584 spores; experiment: Sterilization in cups at about 38° C. (Example 6); assay type: cell-based; settings: 25 mM EDC, 20% isopropanol
Experimental: as §1

[6] = tested on: Mycobacterium chelonae ATCC 35752 vegetative cells; experiment: Sterilization in cups at about 38° C. (Example 6); assay type: cell-based; settings: 25 mM EDC, 20% isopropanol, 1 Hour, inoculum Log 10 5.15
Experimental: as §1

[7] = tested on: Trichosporon aquatile ATCC 22310 vegetative cells; experiment: Sterilization in cups at about 38° C. (Example 6); assay type: cell-based; settings: 25 mM EDC, 20% isopropanol, inoculum Log 10 4.3
Experimental: as §1

## CCN=C=NCCCN(C)C.Cl [EDC, 1-ethyl-3(3-dimethylaminopropyl)carbodiimide hydrochloride]
[1]; 25 mM EDC
  time within which effective sterilization (inactivation of 1×10^6 spores) occurs: ≤ 24 hours
[1]; 50 mM EDC
  time within which effective sterilization (inactivation of 1×10^6 spores) occurs: ≤ 24 hours
[1]; 70 mM EDC
  time within which effective sterilization (inactivation of 1×10^6 spores) occurs: ≤ 24 hours
[2]; 50 mM EDC, 6 hours
  inactivation of spores: only partial kill
[2]; 50 mM EDC, 9 hours
  inactivation of spores: complete inactivation of the spores
[2]; 75 mM EDC, 6 hours
  inactivation of spores: effectively inactivates these spores
[2]; 75 mM EDC, 9 hours
  inactivation of spores: complete inactivation of the spores
[2]; 100 mM EDC, 6 hours
  inactivation of spores: effectively inactivates these spores
[2]; 100 mM EDC, 9 hours
  inactivation of spores: complete inactivation of the spores
[3]; 5 Hours treatment
  hours of incubation of plates after which no growth was observed: (72 hrs.)*
[3]; 24 Hours treatment
  hours of incubation of plates after which no growth was observed: (96 hrs.)*
[4]; 1 Hour, inoculum Log 10 5.45
  Log REDUCTION: 3.68
[4]; 5 Hours, inoculum Log 10 5.45
  Log REDUCTION: 4.41
[4]; 24 Hours, inoculum Log 10 5.22
  Log REDUCTION: 5.22
[5]; 1 Hour, inoculum Log 10 4.6
  Log REDUCTION: 2.12
[5]; 5 Hours, inoculum Log 10 4.6
  Log REDUCTION: 3.02
[5]; 24 Hours, inoculum Log 10 3.65
  Log REDUCTION: 3.65
[6]
  Log REDUCTION: 5.15
[7]; 1 Hour
  Log REDUCTION: 4.3
[7]; 5 Hours
  Log REDUCTION: 4.3
